Literature values in patent US20060269582A1, “Arthropod repellent comprising extracts and/or parts of the plant vitex agnus-castus” (Alpha-Biocare GmbH, priority 2002, published 2006).

Assays:
ticks and mites = conditions: state of the art
ticks = conditions: state of the art

Structure (SMILES): CCN(CC)C(=O)c1cccc(C)c1 [DEET, N,N-diethyl-m-toluamide]
- efficiency / activity against ticks and mites (ticks and mites): low efficiency

Structure (SMILES): CCC(C)OC(=O)N1CCCCC1CCO (stereo not shown) [Bayrepel]
- activity against ticks (ticks): poor
- duration of protection against ticks (ticks): about two

Structure (SMILES): CC1=C(C=O)C(CC=O)CC1 (stereo not shown) [2-(2-formyl-3-methyl-cyclopent-2-enyl)acetaldehyde]
- efficiency / activity against ticks and mites (ticks and mites): low or even not there
